Patent US20230159532A1, “PARATHYROID HORMONE (PTH) RECEPTOR ANTAGONISTS AND USES THEREOF” (Crinetics Pharmaceuticals, Inc., priority 2021, published 2023)

Each molecule was assayed against T1, human PTHR1 receptor (Homo sapiens, UniProt Q03431) (assay: Competitive antagonist binding assay for hPTH-R1 (radioactive competition binding, SPA beads)). Conditions: human PTHR1 membranes, [125I]-[Nle8,18,Tyr34]-PTH(1-34) 0.2 nM, 90 minutes at room temperature; read-out: hPTHR1 Ki.
T1 construct: purchased Eurofins HTS030M
T1 sequence (Q03431 27-593): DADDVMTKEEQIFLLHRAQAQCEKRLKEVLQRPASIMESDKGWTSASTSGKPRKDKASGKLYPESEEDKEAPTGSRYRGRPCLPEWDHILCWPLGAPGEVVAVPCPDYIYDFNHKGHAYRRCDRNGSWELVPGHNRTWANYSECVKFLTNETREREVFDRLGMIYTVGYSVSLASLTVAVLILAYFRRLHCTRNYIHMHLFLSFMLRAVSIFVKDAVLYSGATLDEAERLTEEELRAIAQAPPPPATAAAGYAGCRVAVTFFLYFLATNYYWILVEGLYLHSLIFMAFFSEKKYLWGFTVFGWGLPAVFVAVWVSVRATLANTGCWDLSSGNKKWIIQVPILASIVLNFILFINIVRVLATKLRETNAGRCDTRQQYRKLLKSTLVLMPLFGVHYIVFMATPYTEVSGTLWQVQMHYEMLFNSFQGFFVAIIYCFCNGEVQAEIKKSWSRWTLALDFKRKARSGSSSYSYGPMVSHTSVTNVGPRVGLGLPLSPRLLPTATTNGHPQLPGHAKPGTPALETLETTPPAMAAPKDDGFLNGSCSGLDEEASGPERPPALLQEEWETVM
Method in brief: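 Human PTHR1 membranes on SPA beads incubated 90 min at room temperature with compound (typically 0-10,000 nM final) and 0.2 nM [125I]-[Nle8,18,Tyr34]-PTH(1-34) in HEPES buffer with MgCl2, CaCl2, BSA, Triton X-100 and protease inhibitors, pH 7.4. Scintillation signal read; Ki values derived.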

| Molecule | Ki [nM] |
| --- | --- |
| CCN1C(=O)N(c2c(F)cc(NCCC(=O)O)cc2F)c2cc(Cl)ccc2-c2cc(Cl)cnc21 [1-50, 3-[(4-{4,13-dichloro-8-ethyl-9-oxo-6,8,10-triazatricyclo[9.4.0.0^2,7]pentadeca-1(11),2(7),3,5,12,14-hexaen-10-yl}-3,5-difluorophenyl)amino]propanoic acid] | > 10000 |
| CCN1C(=O)N(c2c(F)cc(N3CCNCC3)cc2F)c2cc(C#N)ccc2-c2cc(Cl)cnc21 [1-136, 4-chloro-10-[2,6-difluoro-4-(piperazin-1-yl)phenyl]-8-ethyl-9-oxo-6,8,10-triazatricyclo[9.4.0.0^2,7]pentadeca-1(11),2(7),3,5,12,14-hexaene-13-carbonitrile] | 100 to 1000 |
| CCN1C(=O)N(c2c(F)cc(NCCNCC#N)cc2F)c2cc(C#N)ccc2-c2cc(Cl)cnc21 [1-160, 4-chloro-10-[4-({2-[(cyanomethyl)amino]ethyl}amino)-2,6-difluorophenyl]-8-ethyl-9-oxo-6,8,10-triazatricyclo[9.4.0.0^2,7]pentadeca-1(11),2(7),3,5,12,14-hexaene-13-carbonitrile] | 100 to 1000 |
| CCN1C(=O)N(c2ccc(NCCNC)cc2)c2cc(OC)ccc2-c2cc(Cl)cnc21 [2-6, 4-chloro-8-ethyl-13-methoxy-10-(4-{[2-(methylamino)ethyl]amino}phenyl)-6,8,10-triazatricyclo[9.4.0.0^2,7]pentadeca-1(11),2(7),3,5,12,14-hexaen-9-one] | < 100 |
| CCN1C(=O)N(c2c(F)cc(NCCNCCO)cc2F)c2cc(C#N)cnc2-c2cc(F)cnc21 [3-13, 8-[2,6-difluoro-4-({2-[(2-hydroxyethyl)amino]ethyl}amino)phenyl]-10-ethyl-14-fluoro-9-oxo-3,8,10,12-tetraazatricyclo[9.4.0.0^2,7]pentadeca-1(11),2(7),3,5,12,14-hexaene-5-carbonitrile] | < 100 |
| CCN1C(=O)N(c2c(F)cc(NCCN[C@H](CO)C(=O)O)cc2F)c2cc(C#N)ccc2-c2cc(Cl)cnc21 [1-220, (2R)-2-({2-[(4-{4-chloro-13-cyano-8-ethyl-9-oxo-6,8,10-triazatricyclo[9.4.0.0^2,7]pentadeca-1(11),2(7),3,5,12,14-hexaen-10-yl}-3,5-difluorophenyl)amino]ethyl}amino)-3-hydroxypropanoic acid] | < 100 |
| CCN1C(=O)N(c2c(F)cc(NCCNCCCC(=O)O)cc2F)c2cc(Cl)cc(C)c2-c2cc(F)cnc21 [1-64, 4-({2-[(4-{13-chloro-8-ethyl-4-fluoro-15-methyl-9-oxo-6,8,10-triazatricyclo[9.4.0.0^2,7]pentadeca-1(11),2(7),3,5,12,14-hexaen-10-yl}-3,5-difluorophenyl)amino]ethyl}amino)butanoic acid] | < 100 |
| CCN1C(=O)N(c2c(F)cc(NCCNC)cc2F)c2cc(Cl)ccc2-c2ccc(C)nc21 [3-1, 13-chloro-10-(2,6-difluoro-4-{[2-(methylamino)ethyl]amino}phenyl)-8-ethyl-5-methyl-6,8,10-triazatricyclo[9.4.0.0^2,7]pentadeca-1(11),2(7),3,5,12,14-hexaen-9-one] | < 100 |
| CCN1C(=O)N(c2c(F)cc(NCCNC3CCOC3)cc2F)c2cc(Cl)ccc2-c2cc(Cl)cnc21 (stereo not shown) [1-13, 4,13-dichloro-10-[2,6-difluoro-4-({2-[(oxolan-3-yl)amino]ethyl}amino)phenyl]-8-ethyl-6,8,10-triazatricyclo[9.4.0.0^2,7]pentadeca-1(11),2(7),3,5,12,14-hexaen-9-one] | < 100 |
| CCN1C(=O)N(c2c(F)cc(NCCN[C@H]3C[C@H](C(=O)O)C3)cc2F)c2cc(C#N)ccc2-c2cc(Cl)cnc21 [1-206, (1r,3r)-3-({2-[(4-{4-chloro-13-cyano-8-ethyl-9-oxo-6,8,10-triazatricyclo[9.4.0.0^2,7]pentadeca-1(11),2(7),3,5,12,14-hexaen-10-yl}-3,5-difluorophenyl)amino]ethyl}amino)cyclobutane-1-carboxylic acid] | < 100 |

Next, values leading:

| Ki [nM] | Molecule |
| --- | --- |
| < 100 | CNCCNc1cc(F)c(N2C(=O)N(C(C)C)c3ncc(Cl)cc3-c3ccc(C#N)cc32)c(F)c1 [1-91, 4-chloro-10-(2,6-difluoro-4-{[2-(methylamino)ethyl]amino}phenyl)-9-oxo-8-(propan-2-yl)-6,8,10-triazatricyclo[9.4.0.0^2,7]pentadeca-1(11),2(7),3,5,12,14-hexaene-13-carbonitrile] |
| < 100 | CCN1C(=O)N(c2c(F)cc(NCCNCCC(C)(C)C(=O)O)cc2F)c2cc(C#N)ccc2-c2cc(Cl)cnc21 [1-209, 4-({2-[(4-{4-chloro-13-cyano-8-ethyl-9-oxo-6,8,10-triazatricyclo[9.4.0.0^2,7]pentadeca-1(11),2(7),3,5,12,14-hexaen-10-yl}-3,5-difluorophenyl)amino]ethyl}amino)-2,2-dimethylbutanoic acid] |
| < 100 | O=C1N(CC(F)(F)F)c2ncc(Cl)cc2-c2ccc(Cl)cc2N1c1c(F)cc(NCCNCCO)cc1F [1-48, 4,13-dichloro-10-[2,6-difluoro-4-({2-[(2-hydroxyethyl)amino]ethyl}amino)phenyl]-8-(2,2,2-trifluoroethyl)-6,8,10-triazatricyclo[9.4.0.0^2,7]pentadeca-1(11),2(7),3,5,12,14-hexaen-9-one] |
| < 100 | CCN1C(=O)N(c2c(F)cc(NCCNC[C@H](C)O)cc2F)c2cc(C#N)ccc2-c2cc(F)cnc21 [1-199, 10-{2,6-difluoro-4-[(2-{[(2S)-2-hydroxypropyl]amino}ethyl)amino]phenyl}-8-ethyl-4-fluoro-9-oxo-6,8,10-triazatricyclo[9.4.0.0^2,7]pentadeca-1(11),2(7),3,5,12,14-hexaene-13-carbonitrile] |
| < 100 | CCN1C(=O)N(c2c(F)cc(NCCNCC3CCCN3)cc2F)c2cc(C#N)ccc2-c2cc(Cl)cnc21 (stereo not shown) [1-238, 4-chloro-10-{2,6-difluoro-4-[(2-{[(pyrrolidin-2-yl)methyl]amino}ethyl)amino]phenyl}-8-ethyl-9-oxo-6,8,10-triazatricyclo[9.4.0.0^2,7]pentadeca-1(15),2(7),3,5,11,13-hexaene-13-carbonitrile] |
| < 100 | CCC(CO)NCCNc1cc(F)c(N2C(=O)N(CC)c3ncc(Cl)cc3-c3ccc(C#N)cc32)c(F)c1 (stereo not shown) [1-139, 4-chloro-10-[2,6-difluoro-4-({2-[(1-hydroxybutan-2-yl)amino]ethyl}amino)phenyl]-8-ethyl-9-oxo-6,8,10-triazatricyclo[9.4.0.0^2,7]pentadeca-1(11),2(7),3,5,12,14-hexaene-13-carbonitrile] |
| < 100 | CN1C(=O)N(c2c(F)cc(NCCNCCCO)cc2F)c2cc(C#N)ccc2-c2cc(Cl)cnc21 [1-197, 4-chloro-10-[2,6-difluoro-4-({2-[(3-hydroxypropyl)amino]ethyl}amino)phenyl]-8-methyl-9-oxo-6,8,10-triazatricyclo[9.4.0.0^2,7]pentadeca-1(11),2(7),3,5,12,14-hexaene-13-carbonitrile] |
| < 100 | CCN1C(=O)N(c2c(F)cc(NCCNC[C@H](O)c3ccccc3)cc2F)c2cc(C#N)ccc2-c2cc(Cl)cnc21 [1-230, 4-chloro-10-{2,6-difluoro-4-[(2-{[(2R)-2-hydroxy-2-phenylethyl]amino}ethyl)amino]phenyl}-8-ethyl-9-oxo-6,8,10-triazatricyclo[9.4.0.0^2,7]pentadeca-1(11),2(7),3,5,12,14-hexaene-13-carbonitrile] |
| < 100 | CCN1C(=O)N(c2c(F)cc(NCCNCCOC(N)=O)cc2F)c2cc(C#N)ccc2-c2cc(Cl)cnc21 [1-189, 2-({2-[(4-{4-chloro-13-cyano-8-ethyl-9-oxo-6,8,10-triazatricyclo[9.4.0.0^2,7]pentadeca-1(11),2(7),3,5,12,14-hexaen-10-yl}-3,5-difluorophenyl)amino]ethyl}amino)ethyl carbamate] |
| < 100 | 3-({2-[(4-{4-chloro-13-cyano-8-methyl-9-oxo-6,8,10-triazatricyclo[9.4.0.0^2,7]pentadeca-1(11),2(7),3,5,12,14-hexaen-10-yl}-3,5-difluorophenyl)amino]ethyl}amino)propanoic acid [1-217] |
| < 100 | CCN1C(=O)N(c2ncc(NCCNC3CCOCC3)cc2F)c2cc(Cl)ccc2-c2cc(Cl)cnc21 [2-14, 4,13-dichloro-8-ethyl-10-[3-fluoro-5-({2-[(oxan-4-yl)amino]ethyl}amino)pyridin-2-yl]-6,8,10-triazatricyclo[9.4.0.0^2,7]pentadeca-1(11),2(7),3,5,12,14-hexaen-9-one] |
| < 100 | CCN1C(=O)N(c2c(F)cc(NCCN[C@@H](CO)C(=O)O)cc2F)c2cc(C#N)ccc2-c2cc(Cl)cnc21 [1-210, (2S)-2-({2-[(4-{4-chloro-13-cyano-8-ethyl-9-oxo-6,8,10-triazatricyclo[9.4.0.0^2,7]pentadeca-1(11),2(7),3,5,12,14-hexaen-10-yl}-3,5-difluorophenyl)amino]ethyl}amino)-3-hydroxypropanoic acid] |
